Measurements from patent US20100298377A1, “NOVEL SUBSTITUTED INDAZOLES, THE PREPARATION THEREOF AND USE OF SAME IN THERAPEUTICS” (SANOFI-AVENTIS, priority 2007, published 2010).
Where two headings read alike, the source gives them in different places.

Tests used:
[1] = tested on: MIA PaCa-2 cells (human pancreatic carcinoma cells); assay: Proliferation of MIA PaCa-2 cells, intracellular ATP, CellTiter-Glo test; format: cell-based; conditions: 96 hours
Text: (§1) b. Study of the Proliferation of Human Tumoral MIA PaCa-2, C-433, LnCaP and MCF7 Cells via Assay of the Intracellular ATP Using the Celltiter-Glo™ Test
(§2) The kit CellTiter-Glo™ for measuring cell viability via luminescence ([…]) is a homogeneous method for determining the number of viable cells in culture, based on quantification of the ATP present in the cells, and which indicates the presence of metabolically active cells.
(§3) The cell lines used in this test were the following: MIA PaCa-2 cells (human pancreatic carcinoma cells, ATCC, CRL-1420), C-433 cells (human Ewing sarcoma cells, DSMZ, ACC 268), LNCaP clone FGC cells (human prostate carcinoma cells, ATCC, CRL-1740), MCF7 cells (human breast carcinoma cells, ECACC, #86012803). The cells MIAPaCa-2 and LNCaP were cultured in D-MEM culture medium (Invitrogen Gibco, #419656-039) containing 10% foetal calf serum (FCS, Invitrogen Gibco, #10500-064) and 2 mM L-Glutamine (Invitrogen Gibco, #25030-024); the C-433 cells were cultured in MCCoy's 5A culture medium (Invitrogen Gibco, #26600-023)/RPMI 1640 (Invitrogen Gibco, #31870-025) (50/50) containing 10% FCS and 2 mM L-glutamine; the MCF7 cells were cultured in EMEM culture medium (EMEM, Biowhittaker, Lonza, #BE12-662F) containing 10% FCS and 2 mM L-Glutamine.
(§4) Evaluation of the Cell Viability via Luminescence Measurement: Celltiter-Glo™ Test
(§5) On day 1, the cells were inoculated at 1000 (C-433), 2500 (MCF7) and 10000 (LNCaP and MIA PaCa-2) cells per well in black-bottomed 96-well microplates (NUNC fluoronunc, Fisherbioblock 2311K) in 135 μl of whole culture medium and incubated at 37° C., 5% CO2, for 3 to 6 hours. The cells were then incubated with increasing concentrations of molecules diluted in dimethyl sulfoxide (DMSO, Sigma D2650). The molecules were added in a volume of 15 μl of a 10-fold concentrated solution in a final volume of 150 μl, the final percentage of DMSO being 0.1%. The cells were incubated at 37° C., 5% CO2, for 96 hours. After 4 days of treatment with the molecules, the CellTiter-Glo™ was performed by following the manufacturer's instructions (Kit Celltiter-Glo Luminescent, PROMEGA #G7571). Briefly, the cell plates were equilibrated for about 30 minutes at RT and 100 μl per well of Celltiter-Glo reagent were added. The cells were incubated for 1 hour at RT for lysis of the cells and stabilization of the signal. The intracellular ATP was quantified by measuring the luminescence in rlu units (relative luminescence units), 96 hours after initiation of the treatment, using a luminescence counter (Wallac). The tests were performed in six replicates.
(§6) i) the mean±s.e.m. of each series of well replicates was calculated;
(§7) ii) the maximum response is given by positive control wells containing untreated cells; this control was performed in 12 replicates;
(§8) iii) the minimum response is given by cell-free and untreated negative control wells; this control was performed in 6 replicates;
(§9) iv) using these maximum (100%) and minimum (0%) response values, respectively, the data were normalized to give a percentage relative to the maximum response;
(§10) The IC50 values were calculated by […] with the XLfit software (IDBS, UK) using formula 205.

[2] = molecular target: AKT1 (Homo sapiens, UniProt P31749, S473D); assay: Determination of the IC50 for AKT1 (HTRF); format: biochemical; conditions: AKT1 without PH domain, activated by PDK1
AKT1, sequence (P31749 118-480 S473D limits assumed): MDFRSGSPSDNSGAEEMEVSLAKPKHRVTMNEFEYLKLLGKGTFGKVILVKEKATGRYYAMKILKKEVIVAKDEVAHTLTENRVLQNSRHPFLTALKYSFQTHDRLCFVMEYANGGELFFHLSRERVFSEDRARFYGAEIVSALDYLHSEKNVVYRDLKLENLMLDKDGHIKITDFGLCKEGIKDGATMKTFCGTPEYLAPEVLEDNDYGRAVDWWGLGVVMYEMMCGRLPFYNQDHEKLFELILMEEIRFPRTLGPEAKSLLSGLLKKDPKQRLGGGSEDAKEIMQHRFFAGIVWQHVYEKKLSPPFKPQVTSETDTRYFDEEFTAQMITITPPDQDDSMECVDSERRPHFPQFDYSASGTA
Protocol: Determination of the IC50 for AKT1
The inhibitory potential of the compounds is evaluated by HTRF, a time-resolved fluorescence technique based on non-radiative energy transfer (FRET). […] This phosphorylation allows the kinase activity of AKT1 to be activated.
Starting with a 10 mM solution of inhibitors, 3 μl are taken and placed in a 96-well polypropylene plate containing 27 μl of 100% DMSO. The various test compounds are diluted in cascade by taking 15 μl of compound, to which are added 30 μl of 100% DMSO.
The various reaction components are added in the following manner:
Next, 10 μl of the inhibitor solution are added. Finally, the reaction is initiated by adding 10 μl of a solution containing both 100 μM of ATP and 10 μM of biotinylated peptide. The sequence of this peptide is as follows: biot-[…] (reference Neosystem SP000560). The plate is then covered with a plastic film, agitated and finally incubated at RT for 30 minutes. […] After incubation overnight at 4° C., the plate is read using an Ultra evolution spectrophotometer from Tecan. […] All the tests are performed in duplicate and the mean of the two tests is calculated.
For each point, a delta F is calculated in the following manner:
(§11) R(Ratio)=counts665 nm/counts620 nm
ΔF % is calculated by the Tecan Ultra Evolution machine.

[3] = molecular target: T1, Human S6K1 (24-421) T412E protein (Homo sapiens, UniProt P23443, T412E); assay: Determination of the IC50 for S6K1 (HTRF substrate phosphorylation test); format: biochemical; conditions: S6K1 activated by PDK1, ATP 30 μM
T1 construct: Human S6K1 (24-421) T412E protein; made in house; host or cells: Sf21 insect cells
T1 sequence (P23443 24-421 T412E): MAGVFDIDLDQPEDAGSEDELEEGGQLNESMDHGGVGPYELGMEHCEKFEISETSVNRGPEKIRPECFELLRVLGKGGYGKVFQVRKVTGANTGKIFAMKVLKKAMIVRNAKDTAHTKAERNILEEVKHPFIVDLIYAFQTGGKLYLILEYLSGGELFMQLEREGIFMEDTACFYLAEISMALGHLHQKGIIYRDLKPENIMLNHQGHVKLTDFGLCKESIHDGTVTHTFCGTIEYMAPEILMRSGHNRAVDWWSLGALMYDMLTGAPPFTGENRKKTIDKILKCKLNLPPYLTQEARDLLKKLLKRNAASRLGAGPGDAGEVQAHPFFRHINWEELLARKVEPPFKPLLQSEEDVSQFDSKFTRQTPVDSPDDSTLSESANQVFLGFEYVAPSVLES
Protocol: Determination of the IC50 for S6K1
The inhibitory potential of the compounds for S6K1 is evaluated in an enzymatic test of phosphorylation of substrate in HTRF (Homogenous Time-Resolved Fluorescence) format. Human S6K1 (24-421) T412E protein is expressed in sf21 cells and purified by chromatography on a nickel chelate column. It is activated by PDK1.
The test comprises two steps, both performed at RT. The phosphorylation reaction takes place during the first step and the revelation step is performed during the second. […] The final concentrations of compounds thus obtained during the incubation period range from 10 μM to 0.17 nM and the concentration of enzyme is 2 nM. After incubation for 20 minutes, the reaction is stopped and the revelation initiated by addition of 30 μl of a mixture of streptavidin XL 665 Xlent, ref. 611SAXLB Cis bio international, and a europium cryptate-coupled anti-phospho-GSK3 antibody, ref. 64CUSKAZ Cis bio international, dissolved in the revelation buffer (HEPES/NaOH 166.7 mM, EDTA 221.7 mM, KF 667.7 mM, BSA 0.167%, pH 7.0). The reaction takes place in a black half-well plate ref. 3694 Costar.
A mixture of the reaction medium after each addition of reagent is obtained by agitation for a few minutes at 700-1000 rpm on a Heidolph Titramax 100 machine. The reading is taken on a TECAN Ultra Evolution machine after at least one night and up to 3 nights at 4° C. The reading settings are as follows: excitation wavelength 320 nm, emission wavelengths 620 and 665 nm, lag time 150 μs, integration time 500 μs.
For each point, the ΔF % is calculated as follows:
as §11
The IC50 values are calculated by means of the XLfit4 205 equation.

[4] = tested on: LNCaP clone FGC cells (human prostate carcinoma cells); assay: Proliferation of LNCaP cells, intracellular ATP, CellTiter-Glo test; format: cell-based; conditions: 96 hours
Text: as §1, §2, §3, §4, §5, §6, §7, §8, §9, §10

[5] = tested on: MEF-IGF1 murine fibroblast cells; assay: IGF1-dependent proliferation of MEF-IGF1 cells via incorporation of [14C]-thymidine; format: cell-based; conditions: [14C]-thymidine incorporation, IGF1 stimulated, 72 hours, read-out: IC50 MEF-IGF
Text: a. Study of the IGF1-Dependent Proliferation of MEF-IGF1 Murine Fibroblast Cells Measured via Incorporation of [14C]-Thymidine
This test is based on the incorporation of [^14C]-thymidine into the DNA of the cells for the S phase of the cell cycle during cell division. The cell line used in this test is the MEF/3T3 Tet-Off Clone 18 line obtained by stable transfection of the human receptor IGF1R in murine MEF/3T3 Tet-Off fibroblasts. To measure the IGF1-dependent cell proliferation, the cells were deprived of serum and cultured for 3 days in the serum-free culture medium in the presence of the growth factor IGF1 which stimulates the proliferation of MEF-IGF1 cells.
Test of Incorporation of [^14C]-Thymidine into MEF-IGF1 Cells
On day 1, the cells were inoculated with 7500 cells per well in Cytostar 96-well microplates (Amersham (GE) RPNQ0162) in 200 μl of EMEM medium (EMEM, Biowhittaker, #BE12-662F) containing 10% foetal calf serum (FCS, TET-BD Biosciences Tet System Approved FBS US-Sourced, #8630-1) and 1% PSG (Penicillin-Streptomycin-Glutamine (PSG), Gibco #10378-016), and incubated at 37° C., 5% CO2, for 24 hours. On day 2, the cells were washed in the FCS-free EMEM culture medium containing 1% PSG, and incubated in 170 μl of this serum-free culture medium at 37° C., 5% CO2, for 24 hours. On day 3, the cells were incubated with 10 μl of IGF1 (2 μg/ml of final concentration; recombinant human IGF-1, R & D Systems, #291-G1), 10 μl (0.1 μCi) of [^14C]-Thymidine (NEN NEC-568) plus 10 μl of increasing concentrations of the test molecules, diluted in dimethyl sulfoxide (DMSO, Sigma D2650). The molecules were added in a volume of 10 μl of a 20-fold concentrated solution in a final volume of 200 μl, the final percentage of DMSO being 0.1%. The treated cells were incubated at 37° C., 5% CO2, for 72 hours. The incorporation of [^14C]-Thymidine was quantified in cpm units (counts per minute) by counting the radioactivity 72 hours after the start of the treatment, using a Micro-Beta radioactivity counter (Perkin-Elmer). The tests were performed in duplicate.
as §6
ii) the background noise is calculated by preparing cell-free, IGF1-free and untreated control wells; this control was performed in 4 replicates. The background noise was removed at each measurement;
iii) the maximum response is given by positive control wells containing cells in the presence of IGF1 but untreated; this control was performed in 4 replicates;
iv) the minimum response is given by negative control wells containing IGF1-free and untreated cells; this control was performed in 4 replicates;
as §10

[6] = tested on: MCF7 cells (human breast carcinoma cells); assay: Proliferation of MCF7 cells, intracellular ATP, CellTiter-Glo test; format: cell-based; conditions: 96 hours
Text: as §1, §2, §3, §4, §5, §6, §7, §8, §9, §10

[7] = tested on: C-433 cells (human Ewing sarcoma cells); assay: Proliferation of C-433 cells, intracellular ATP, CellTiter-Glo test; format: cell-based; conditions: 96 hours
Text: as §1, §2, §3, §4, §5, §6, §7, §8, §9, §10

IC50 [1] [µM] | IC50 [2] [µM] | Molecule | further results
2.9 | < 0.1 | O=C(Nc1ccc2[nH]ncc2c1)N[C@H](c1ccc(Cl)c(Cl)c1)[C@H]1CCCCN1 [Ex 6, 1-{(R)-(3,4-Dichlorophenyl)[(2R)-piperid-2-yl]methyl}-3-(1H-indazol-5-yl)urea] | IC50 [3]: 0.1 to 0.5 µM
9.32 | < 0.1 | O=C(Nc1ccc2[nH]ncc2c1)N[C@@H](c1cc(Cl)cc(Cl)c1)[C@@H]1CCCCN1 [Ex 7, 1-{(S)-(3,5-Dichlorophenyl)[(2S)-piperid-2-yl]methyl}-3-(1H-indazol-5-yl)urea] | IC50 ([4]; Homo sapiens, LNCaP-Clone-FGC): 5 µM; IC50 ([5]; Mus musculus, Fibroblast): 0.28 µM
2.8 | 0.1 to 0.5 | CN1CCCCC1C(NC(=O)Nc1ccc2[nH]nc(-c3ccccn3)c2c1)c1ccccc1 [Ex 15, 1-[(1-Methylpiperid-2-yl)(phenyl)methyl]-3-(3-pyrid-2-yl-1H-indazol-5-yl)urea((S,2S),(R,2R))] | 
7.79 | 0.1 to 0.5 | O=C(Nc1ccc2[nH]nc(-c3ccncc3)c2c1)N[C@@H](c1ccc(Cl)c(Cl)c1)[C@@H]1CCCCN1 [Ex 16, 1-{(S)-(3,4-Dichlorophenyl)[(2S)-piperid-2-yl]methyl}-3-(3-pyrid-4-yl-1H-indazol-5-yl)urea] | 
 | < 0.1 | CN1CCCCC1C(NC(=O)Nc1ccc2[nH]nc(-c3nc4ccccc4[nH]3)c2c1)c1ccccc1 [Ex 17, 1-[3-(1H-Benzimidazol-2-yl)-1H-indazol-5-yl]-3-[(1-methylpiperid-2-yl)(phenyl)methyl]urea((S,2S),(R,2R))] | IC50 ([4]; Homo sapiens, LNCaP-Clone-FGC): 0.67 µM; IC50 ([5]; Mus musculus, Fibroblast): 2.23 µM
10 | 0.1 to 0.5 | CN1CCCCC1C(NC(=O)Nc1cc(F)c2[nH]nc(N)c2c1)c1ccccc1 [Ex 20, 1-(3-Amino-7-fluoro-1H-indazol-5-yl)-3-[(1-methylpiperid-2-yl)(phenyl)methyl]urea((S,2S),(R,2R))] | 
0.93 | < 0.1 | CN1CCCCC1C(NC(=O)Nc1ccc2[nH]nc(C#Cc3ccccc3)c2c1)c1ccccc1 [Ex 23, 1-[(1-Methylpiperid-2-yl)(phenyl)methyl]-3-[3-(phenylethynyl)-1H-indazol-5-yl]urea((S,2S),(R,2R))] | IC50 [3]: 0.5 to 2 µM
1.5 to 7 | 0.1 to 0.5 | CN1CCCCC1C(NC(=O)Nc1ccc2[nH]nc(CCc3ccccc3)c2c1)c1ccccc1 [Ex 27, 1-[(1-Methylpiperid-2-yl)(phenyl)methyl]-3-[3-(2-phenylethyl)-1H-indazol-5-yl]urea((S,2S),(R,2R))] | 

Molecule | IC50 [1] [µM] | IC50 [2] [µM] | further results
(6-Fluoro-1H-indazol-5-yl)-(S)-(3-chloro-5-fluorophenyl)-(S)-piperid-2-ylmethyl carbamate [Ex 50] |  | < 0.1 | IC50 [5]: 3.16 µM
(7-Fluoro-1H-indazol-5-yl)-(S)-(3,4-dichlorophenyl)-(S)-piperid-2-ylmethyl carbamate [Ex 48] |  | < 0.1 | IC50 [6]: 1.5 µM; IC50 [7]: 0.505 µM; IC50 [4]: 1.35 µM; IC50 [5]: 0.295 µM
